# Source: PubChem BioAssay AID1259407 (Chemical Carcinogenesis Research Information System (CCRIS), 2018)
# Activity calls are given as the source filed them. No rule for the calls is given here.
# Tested on: CCRIS mutagenicity, Ames/micronucleus/aberration tests
# Assay: CCRIS mutagenicity studies
# [1] = Test System: AMES SALMONELLA TYPHIMURIUM, Strain/Indicator: TA98, Metabolic Activation: NONE, Method: STANDARD PLATE
# [2] = Test System: AMES SALMONELLA TYPHIMURIUM, Strain/Indicator: TA98, Metabolic Activation: RAT, LIVER, S-9, AROCLOR 1254, Method: STANDARD PLATE
# [3] = Test System: AMES SALMONELLA TYPHIMURIUM, Strain/Indicator: TA1535, Metabolic Activation: NONE, Method: STANDARD PLATE
# [4] = Test System: AMES SALMONELLA TYPHIMURIUM, Strain/Indicator: TA1535, Metabolic Activation: RAT, LIVER, S-9, AROCLOR 1254, Method: STANDARD PLATE
# [5] = Test System: AMES SALMONELLA TYPHIMURIUM, Strain/Indicator: TA1537, Metabolic Activation: NONE, Method: STANDARD PLATE
# [6] = Test System: AMES SALMONELLA TYPHIMURIUM, Strain/Indicator: TA1537, Metabolic Activation: RAT, LIVER, S-9, AROCLOR 1254, Method: STANDARD PLATE
# [7] = Test System: AMES SALMONELLA TYPHIMURIUM, Strain/Indicator: TA100, Metabolic Activation: NONE, Method: STANDARD PLATE
structure (smiles),measurement,setting,value
[N-]=[N+]=[N-],mutagenic call,"Test System: AMES SALMONELLA TYPHIMURIUM, Strain/Indicator: TA97, Metabolic Activation: NONE, Method: STANDARD PLATE",inactive; negative
same,mutagenic call,"Test System: AMES SALMONELLA TYPHIMURIUM, Strain/Indicator: TA97, Metabolic Activation: RAT, LIVER, S-9, AROCLOR 1254, Method: STANDARD PLATE",inactive; negative
same,mutagenic call,"Test System: AMES SALMONELLA TYPHIMURIUM, Strain/Indicator: TA98, Metabolic Activation: HAMSTER, LIVER, S-9, AROCLOR 1254 (10%), Method: PREINCUBATION",inactive; negative
same,mutagenic call,"Test System: AMES SALMONELLA TYPHIMURIUM, Strain/Indicator: TA98, Metabolic Activation: NONE, Method: PREINCUBATION",inactive; negative
same,mutagenic call,"Test System: AMES SALMONELLA TYPHIMURIUM, Strain/Indicator: TA98, Metabolic Activation: NONE, Method: SPIRAL ASSAY",inactive; negative
same,mutagenic call,[1],inactive; negative
same,mutagenic call,"Test System: AMES SALMONELLA TYPHIMURIUM, Strain/Indicator: TA98, Metabolic Activation: RAT, LIVER, S-9, ACRYLAMIDE, Method: STANDARD PLATE",active; positive
same,mutagenic call,"Test System: AMES SALMONELLA TYPHIMURIUM, Strain/Indicator: TA98, Metabolic Activation: RAT, LIVER, S-9, AROCLOR 1254 (10%), Method: PREINCUBATION",inactive; negative
same,mutagenic call,"Test System: AMES SALMONELLA TYPHIMURIUM, Strain/Indicator: TA98, Metabolic Activation: RAT, LIVER, S-9, AROCLOR 1254, Method: SPIRAL ASSAY",inactive; negative
same,mutagenic call,[2],inactive; negative
same,mutagenic call,"Test System: AMES SALMONELLA TYPHIMURIUM, Strain/Indicator: TA100, Metabolic Activation: HAMSTER, LIVER, S-9, AROCLOR 1254 (10%), Method: PREINCUBATION",active; positive
same,mutagenic call,"Test System: AMES SALMONELLA TYPHIMURIUM, Strain/Indicator: TA100, Metabolic Activation: NONE, Method: PREINCUBATION",active; positive
same,mutagenic call,"Test System: AMES SALMONELLA TYPHIMURIUM, Strain/Indicator: TA100, Metabolic Activation: NONE, Method: SPIRAL ASSAY",active; positive
same,mutagenic call,"Test System: AMES SALMONELLA TYPHIMURIUM, Strain/Indicator: TA100, Metabolic Activation: RAT, LIVER, S-9, ACRYLAMIDE, Method: STANDARD PLATE",active; positive
same,mutagenic call,"Test System: AMES SALMONELLA TYPHIMURIUM, Strain/Indicator: TA100, Metabolic Activation: RAT, LIVER, S-9, AROCLOR 1254 (10%), Method: PREINCUBATION",active; positive
same,mutagenic call,"Test System: AMES SALMONELLA TYPHIMURIUM, Strain/Indicator: TA100, Metabolic Activation: RAT, LIVER, S-9, AROCLOR 1254, Method: SPIRAL ASSAY",active; positive
same,mutagenic call,"Test System: AMES SALMONELLA TYPHIMURIUM, Strain/Indicator: TA100, Metabolic Activation: RAT, LIVER, S-9, PCB, Method: PREINCUBATION",active; positive
same,mutagenic call,"Test System: AMES SALMONELLA TYPHIMURIUM, Strain/Indicator: TA1530, Metabolic Activation: NONE, Method: STANDARD PLATE",active; positive
same,mutagenic call,"Test System: AMES SALMONELLA TYPHIMURIUM, Strain/Indicator: TA1535, Metabolic Activation: HAMSTER, LIVER, S-9, AROCLOR 1254 (10%), Method: PREINCUBATION",active; positive
same,mutagenic call,"Test System: AMES SALMONELLA TYPHIMURIUM, Strain/Indicator: TA1535, Metabolic Activation: NONE, Method: PREINCUBATION",active; positive
same,mutagenic call,"Test System: AMES SALMONELLA TYPHIMURIUM, Strain/Indicator: TA1535, Metabolic Activation: NONE, Method: SPIRAL ASSAY",active; positive
same,mutagenic call,[3],active; positive
same,mutagenic call,"Test System: AMES SALMONELLA TYPHIMURIUM, Strain/Indicator: TA1535, Metabolic Activation: RAT, LIVER, S-9, AROCLOR 1254 (10%), Method: PREINCUBATION",active; positive
same,mutagenic call,"Test System: AMES SALMONELLA TYPHIMURIUM, Strain/Indicator: TA1535, Metabolic Activation: RAT, LIVER, S-9, AROCLOR 1254, Method: SPIRAL ASSAY",active; positive
same,mutagenic call,[4],active; positive
same,mutagenic call,"Test System: AMES SALMONELLA TYPHIMURIUM, Strain/Indicator: TA1537, Metabolic Activation: HAMSTER, LIVER, S-9, AROCLOR 1254 (10%), Method: PREINCUBATION",inactive; negative
same,mutagenic call,"Test System: AMES SALMONELLA TYPHIMURIUM, Strain/Indicator: TA1537, Metabolic Activation: NONE, Method: PREINCUBATION",inactive; negative
same,mutagenic call,[5],inactive; negative
same,mutagenic call,"Test System: AMES SALMONELLA TYPHIMURIUM, Strain/Indicator: TA1537, Metabolic Activation: RAT, LIVER, S-9, AROCLOR 1254 (10%), Method: PREINCUBATION",inactive; negative
same,mutagenic call,[6],inactive; negative
same,mutagenic call,"Test System: AMES SALMONELLA TYPHIMURIUM, Strain/Indicator: TA1538, Metabolic Activation: HAMSTER, LIVER, S-9, AROCLOR 1254 (10%), Method: PREINCUBATION",inactive; negative
same,mutagenic call,"Test System: AMES SALMONELLA TYPHIMURIUM, Strain/Indicator: TA1538, Metabolic Activation: NONE, Method: PREINCUBATION",inactive; negative
same,mutagenic call,"Test System: AMES SALMONELLA TYPHIMURIUM, Strain/Indicator: TA1538, Metabolic Activation: RAT, LIVER, S-9, AROCLOR 1254 (10%), Method: PREINCUBATION",inactive; negative
same,mutagenic call,"Test System: Ames Salmonella typhimurium, Strain/Indicator: TA1975P, Metabolic Activation: None, Method: Preincubation",active; positive (at higher doses)
same,mutagenic call,"Test System: E. COLI, Strain/Indicator: AB2500, Metabolic Activation: NONE, Method: STANDARD PLATE",inactive; negative
same,mutagenic call,"Test System: E. COLI, Strain/Indicator: WP2 UVRA, Metabolic Activation: HAMSTER, LIVER, S-9, AROCLOR 1254, Method: STANDARD PLATE",inactive; negative
same,mutagenic call,"Test System: E. COLI, Strain/Indicator: WP2 UVRA, Metabolic Activation: HAMSTER, LIVER, S-9, Method: STANDARD PLATE",inactive; negative
same,mutagenic call,"Test System: E. COLI, Strain/Indicator: WP2 UVRA, Metabolic Activation: MOUSE, LIVER, S-9, AROCLOR 1254, Method: STANDARD PLATE",inactive; negative
same,mutagenic call,"Test System: E. COLI, Strain/Indicator: WP2 UVRA, Metabolic Activation: MOUSE, LIVER, S-9, Method: STANDARD PLATE",inactive; negative
same,mutagenic call,"Test System: E. COLI, Strain/Indicator: WP2 UVRA, Metabolic Activation: NONE, Method: STANDARD PLATE",inactive; negative
same,mutagenic call,"Test System: E. COLI, Strain/Indicator: WP2 UVRA, Metabolic Activation: RAT, LIVER, S-9, AROCLOR 1254, Method: STANDARD PLATE",inactive; negative
same,mutagenic call,"Test System: E. COLI, Strain/Indicator: WP2 UVRA, Metabolic Activation: RAT, LIVER, S-9, Method: STANDARD PLATE",inactive; negative
same,mutagenic call,"Test System: MOUSE LYMPHOMA, Strain/Indicator: L5178Y (TK+/TK-), Metabolic Activation: NONE, Method: SUSPENSION/PLATE",active; positive
Cn1c(NO)nc2ncc(-c3ccccc3)cc21,mutagenic call,"Test System: AMES SALMONELLA TYPHIMURIUM, Strain/Indicator: TA98(1,8-DNP6), Metabolic Activation: NONE, Method: STANDARD PLATE",active; positive
same,mutagenic call,[1],active; positive
same,mutagenic call,[2],active; positive
O=C1CCCCC1=O,mutagenic call,[7],active; positive
CSCC[C@H](NC(=O)[C@@H](N)Cc1c[nH]c2ccccc12)C(=O)N[C@@H](CC(=O)O)C(=O)N[C@@H](Cc1ccccc1)C(N)=O,mutagenic call,[1],inactive; negative
same,mutagenic call,[2],inactive; negative
same,mutagenic call,[7],inactive; negative
same,mutagenic call,"Test System: AMES SALMONELLA TYPHIMURIUM, Strain/Indicator: TA100, Metabolic Activation: RAT, LIVER, S-9, AROCLOR 1254, Method: STANDARD PLATE",inactive; negative
same,mutagenic call,[3],inactive; negative
same,mutagenic call,[4],inactive; negative
same,mutagenic call,[5],inactive; negative
same,mutagenic call,[6],inactive; negative
